Assay results as given in patent US20150119352A1, “DINUCELOSIDE POLYPHOSPHATES FOR THE TREATMENT OF PAIN” (GlobalAcorn Ltd., priority 2012, published 2015).

Legend:
[1] = test system: rats with Partial Sciatic Nerve Ligation (PSNL); experiment: Partial Sciatic Nerve Ligation (PSNL) thermal hyperalgesia test; type: in vivo, rat; conditions: 50 μM
Procedure: FIG. 9. […] Time-course of the effects of 50 μM (100 μL) of AppCH2ppA on PWL.
PSNL, with tight ligation of 33-50% of the sciatic nerve trunk, is a neuropathic pain model. We sub-cutaneously injected 50 μM of AppCH2ppA ([…]) on thermal hyperalgesia in rats with PSNL. […] Results are expressed as mean+/−S.E.M. In this model, the antinociceptive effect is 62%.

[2] = biological target: T1, native P2X3 receptors, dorsal root ganglia (DRG) neurons (Rattus norvegicus, UniProt P49654); experiment: α,β-meATP-induced currents in cultured dorsal root ganglia neurons; type: cell-based; conditions: DRG neuron, read-out: inhibition (suppression) of the peak current
T1 construct: Modulation of Native P2X3 Receptors in Rat Cultured Sensory Neurons; endogenous in cells; host or cells: primary cultured rat trigeminal ganglion and dorsal root ganglion neurons
T1 sequence (P49654 1-397): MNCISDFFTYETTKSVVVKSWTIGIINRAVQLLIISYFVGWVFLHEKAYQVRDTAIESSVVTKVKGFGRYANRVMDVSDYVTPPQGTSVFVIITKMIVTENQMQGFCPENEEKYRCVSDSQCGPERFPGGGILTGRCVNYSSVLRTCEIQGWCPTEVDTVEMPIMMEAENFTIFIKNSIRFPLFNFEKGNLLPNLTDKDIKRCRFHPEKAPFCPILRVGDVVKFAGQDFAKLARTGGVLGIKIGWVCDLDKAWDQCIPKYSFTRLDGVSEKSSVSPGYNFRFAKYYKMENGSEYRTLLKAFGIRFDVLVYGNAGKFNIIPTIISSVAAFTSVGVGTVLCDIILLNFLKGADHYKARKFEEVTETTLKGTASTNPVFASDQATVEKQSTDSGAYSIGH
Procedure: (§1) Rat trigeminal (TG), nodose (NG) or dorsal root ganglion (DRG) neurons in culture were prepared as described previously (Sokolova et al., 2001; Simonetti et al., 2006). Neurons were plated on poly-L-lysine (0.2 mg/mL)-coated Petri dishes and cultured for 1 to 2 days under an atmosphere containing 5% CO2. Cells were used within 2 days of plating when they lacked processes. HEK293T cells were prepared as reported previously (Fabbretti et al., 2004; Sokolova et al., 2004) and transfected with rat full-length P2X3 cDNA subcloned into pIRES2-EGFP (Clontech, Mountain View, Calif., USA).
(§2) Trigeminal, nodose, DRG neurons or HEK cells were recorded in the whole-cell configuration while being continuously superfused (at 2 mL/min) with control solution containing (in mM): 152 NaCl, 5 KCl, 1 MgCl2, 2 CaCl2, 10 glucose, and 10 HEPES; pH was adjusted to 7.4 with NaOH and osmolarity was adjusted to 320 mOsM with glucose. […] Responses to selective P2X3 receptor agonist α,β-methylene-ATP (α,β-meATP; resistant to ectoATPase hydrolysis, Sigma-Aldrich) were measured using an EPC-9 amplifier and HEKA Patch Master software (HEKA Electronik, Germany). Cells were voltage-clamped at −70 mV. In most cells, series resistance was compensated by 80%. […]
(§3) The peak amplitudes of the responses were measured using HEKA Patch Master software. […]

[3] = test system: native P2X3 receptors, dorsal root ganglia (DRG) neurons; experiment: as above; type: cell-based, rat; conditions: 1 μM, DRG neurons
Procedure: as §1, §2, §3

[4] = test system: native P2X3 receptors, nodose ganglia (NG) neurons; experiment: α,β-meATP-induced currents in cultured nodose ganglia neurons; type: cell-based, rat; conditions: 1 μM
Procedure: as §1, §2, §3

SMILES	effect on thermal hyperalgesia (PWL) ([1]; 100 μL, subcutaneous)	antinociceptive effect ([1]; sub-cutaneous, thermal hyperalgesia, PWL)	inhibition at 1 µM [2]	inhibition of sustained residual component [3]	inhibition of sustained residual component [4]	inhibition (suppression) of the peak current ([4]; 10 μM α,β-meATP)
Nc1ncnc2c1ncn2[C@@H]1O[C@H](COP(=O)(O)OP(=O)(O)CP(=O)(O)OP(=O)(O)OC[C@H]2O[C@@H](n3cnc4c(N)ncnc43)C(O)C2O)C(O)C1O (stereo in doubt) [AppCH2ppA]	reduced thermal hyperalgesia	62%	–	–	–	–
Nc1ncnc2c1ncn2[C@@H]1O[C@H](COP(=O)(O)OP(=O)(O)NP(=O)(O)OP(=O)(O)OC[C@H]2O[C@@H](n3cnc4c(N)ncnc43)C(O)C2O)C(O)C1O (stereo in doubt) [AppNHppA]	–	–	79.2 ± 5.6%	18±6%	2±4%	16.8±11.8%
